Tests used:
[1] = Selectivity ratio of Ki for mu opioid receptor to Ki for kappa opioid receptor
[2] = Selectivity ratio of Ki for delta opioid receptor to Ki for kappa opioid receptor
[3] = molecular target: T1, Mu-type opioid receptor (Homo sapiens, UniProt P35372); test: Displacement of [3H]DAMGO from mu opioid receptor expressed in HEK293 cells; format: cell-based
[4] = molecular target: T2, Kappa-type opioid receptor (Homo sapiens, UniProt P41145); test: Agonist activity at kappa opioid receptor expressed in HEK293 cells by [35S]GTPgammaS binding assay; format: functional, cell-based
[5] = molecular target: T2, Kappa-type opioid receptor; test: Displacement of [3H]U69593 from kappa opioid receptor expressed in HEK293 cells relative to salvinorin A; format: cell-based; parameters: concentration or dose not given beside the values
[6] = molecular target: T2, Kappa-type opioid receptor; test: Agonist activity at kappa opioid receptor expressed in HEK293 cells by [35S]GTPgammaS binding assay relative to salvinorin A; format: functional, cell-based
[7] = molecular target: T2, Kappa-type opioid receptor; test: Displacement of [3H]diprenorphine from kappa opioid receptor expressed in HEK293 cells relative to salvinorin A; format: cell-based; parameters: concentration or dose not given beside the values
[8] = molecular target: T3, Delta-type opioid receptor (Homo sapiens, UniProt P41143); test: Displacement of [3H]DADLE from delta opioid receptor expressed in HEK293 cells relative to DADLE; format: cell-based; parameters: concentration or dose not given beside the values
[9] = molecular target: T2, Kappa-type opioid receptor; test: Displacement of [3H]U69593 from kappa opioid receptor expressed in HEK293 cells; format: cell-based
[10] = molecular target: T3, Delta-type opioid receptor; test: Displacement of [3H]DADLE from delta opioid receptor expressed in HEK293 cells; format: cell-based
[11] = molecular target: T1, Mu-type opioid receptor; test: Displacement of [3H]DAMGO from mu opioid receptor expressed in HEK293 cells relative to DAMGO; format: cell-based; parameters: concentration or dose not given beside the values

T1 sequence (P35372 whole entry): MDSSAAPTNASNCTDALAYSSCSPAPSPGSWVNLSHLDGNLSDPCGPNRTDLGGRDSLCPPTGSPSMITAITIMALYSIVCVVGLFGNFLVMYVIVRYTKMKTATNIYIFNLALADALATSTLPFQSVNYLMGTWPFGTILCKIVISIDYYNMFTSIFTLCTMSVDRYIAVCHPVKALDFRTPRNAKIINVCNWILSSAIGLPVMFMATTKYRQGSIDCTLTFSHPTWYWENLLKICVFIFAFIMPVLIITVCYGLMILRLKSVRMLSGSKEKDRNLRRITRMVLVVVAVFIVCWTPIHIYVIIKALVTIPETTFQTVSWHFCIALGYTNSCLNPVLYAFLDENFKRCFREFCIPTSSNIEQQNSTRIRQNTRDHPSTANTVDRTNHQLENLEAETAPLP
T3 sequence (P41143 whole entry): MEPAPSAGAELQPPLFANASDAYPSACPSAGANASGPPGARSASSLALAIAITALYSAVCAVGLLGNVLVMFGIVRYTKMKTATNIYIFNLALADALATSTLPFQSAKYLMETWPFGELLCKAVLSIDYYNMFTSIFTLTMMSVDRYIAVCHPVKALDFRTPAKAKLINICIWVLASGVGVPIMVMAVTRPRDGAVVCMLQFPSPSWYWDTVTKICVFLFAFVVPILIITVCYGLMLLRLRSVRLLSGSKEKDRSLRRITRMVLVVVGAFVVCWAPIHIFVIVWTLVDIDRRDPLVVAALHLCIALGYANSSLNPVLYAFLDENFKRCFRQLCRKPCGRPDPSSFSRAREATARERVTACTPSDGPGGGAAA
T2 sequence (P41145 whole entry): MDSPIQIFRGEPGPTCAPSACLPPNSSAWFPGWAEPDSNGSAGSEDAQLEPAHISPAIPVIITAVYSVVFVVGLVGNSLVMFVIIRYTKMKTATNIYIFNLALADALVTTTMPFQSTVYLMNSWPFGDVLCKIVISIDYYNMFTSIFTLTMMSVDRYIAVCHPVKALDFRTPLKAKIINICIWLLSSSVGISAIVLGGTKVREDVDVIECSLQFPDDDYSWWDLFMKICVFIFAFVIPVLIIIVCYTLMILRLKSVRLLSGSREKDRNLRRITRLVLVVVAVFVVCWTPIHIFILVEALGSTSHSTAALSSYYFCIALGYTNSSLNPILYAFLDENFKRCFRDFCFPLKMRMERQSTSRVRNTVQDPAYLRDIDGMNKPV

SMILES | Ratio Ki [1] | Ratio Ki [2] | Ki [3] [µM] | EC50 [4] [µM] | Emax [4] [%] | Activity [5] [%] | Emax [6] [%] | Activity [7] [%] | Activity [8] [%] | Ki [9] [µM] | Ki [10] [µM] | Activity [11] [%]
COC(=O)[C@@H]1C[C@H](OC(=O)[C@@H](N)C(C)C)C(=O)[C@H]2[C@@]1(C)CC[C@H]1C(=O)O[C@H](c3ccoc3)C[C@]21C | > 238 | > 238 | > 10 | 0.213 | 828 | 103 | 118 | 91 | 48 | 0.042 | > 10 | 5
COC(=O)[C@@H]1C[C@H](OC(=O)CN)C(=O)[C@H]2[C@@]1(C)CC[C@H]1C(=O)O[C@H](c3ccoc3)C[C@]21C | – | – | – | – | – | 41 | – | 0 | 17 | – | – | -5
COC(=O)[C@@H]1C[C@H](OC(=O)CCCNC(=O)OCC2c3ccccc3-c3ccccc32)C(=O)[C@H]2[C@@]1(C)CC[C@H]1C(=O)O[C@H](c3ccoc3)C[C@]21C | – | – | – | – | – | 10 | – | 0 | 24 | – | – | 27
COC(=O)[C@@H]1C[C@H](OC(=O)CNC(=O)OCC2c3ccccc3-c3ccccc32)C(=O)[C@H]2[C@@]1(C)CC[C@H]1C(=O)O[C@H](c3ccoc3)C[C@]21C | – | – | – | – | – | 4 | – | 10 | 16 | – | – | 20
COC(=O)[C@@H]1C[C@H](OC(=O)CCCN)C(=O)[C@H]2[C@@]1(C)CC[C@H]1C(=O)O[C@H](c3ccoc3)C[C@]21C | – | – | – | – | – | 48 | – | 0 | 28 | – | – | 1
Oc1ccc2c3c1O[C@H]1c4[nH]c5ccccc5c4C[C@@]4(O)[C@@H](C2)N(CC2CC2)CC[C@]314 | – | – | – | – | – | – | – | – | 100 | – | – | –
COC(=O)[C@@H]1C[C@H](OC(=O)[C@@H](N)[C@H](C)OC(C)(C)C)C(=O)[C@H]2[C@@]1(C)CC[C@H]1C(=O)O[C@H](c3ccoc3)C[C@]21C | – | – | – | – | – | 6 | – | 0 | 11 | – | – | 2
COC(=O)[C@@H]1C[C@H](OC(=O)[C@H](C)NC(=O)OCC2c3ccccc3-c3ccccc32)C(=O)[C@H]2[C@@]1(C)CC[C@H]1C(=O)O[C@H](c3ccoc3)C[C@]21C | – | – | – | – | – | 21 | – | 0 | 15 | – | – | 24
COC(=O)[C@@H]1C[C@H](OC(=O)[C@@H](NC(=O)OCC2c3ccccc3-c3ccccc32)[C@H](C)OC(C)(C)C)C(=O)[C@H]2[C@@]1(C)CC[C@H]1C(=O)O[C@H](c3ccoc3)C[C@]21C | – | – | – | – | – | 28 | – | 12 | 8 | – | – | 18
COC(=O)[C@@H]1C[C@H](OC(=O)[C@@H](N)Cc2ccccc2)C(=O)[C@H]2[C@@]1(C)CC[C@H]1C(=O)O[C@H](c3ccoc3)C[C@]21C | – | – | – | – | – | 19 | – | 0 | 13 | – | – | -6
COC(=O)[C@@H]1C[C@H](OC(=O)[C@H](Cc2ccccc2)NC(=O)OCC2c3ccccc3-c3ccccc32)C(=O)[C@H]2[C@@]1(C)CC[C@H]1C(=O)O[C@H](c3ccoc3)C[C@]21C | – | – | – | – | – | 0 | – | 34 | 3 | – | – | 0.5
COC(=O)[C@@H]1C[C@H](OC(=O)[C@H](C)N)C(=O)[C@H]2[C@@]1(C)CC[C@H]1C(=O)O[C@H](c3ccoc3)C[C@]21C | > 2.64 | > 2.64 | > 10 | – | – | 82 | – | 0 | 18 | 3.78 | > 10 | -1.6
COC(=O)[C@@H]1C[C@H](OC(=O)[C@@H](NC(=O)OCC2c3ccccc3-c3ccccc32)C(C)C)C(=O)[C@H]2[C@@]1(C)CC[C@H]1C(=O)O[C@H](c3ccoc3)C[C@]21C | – | – | – | – | – | 39 | – | 0 | 22 | – | – | 15

Source: ChEMBL document CHEMBL1641545 (Bioorg Med Chem Lett, 2011)
